# Laboratory results as given in patent US20120065198A2, “Detection and Treatment of Schizophrenia” (Tokai University Educational System, priority 2007, published 2012).
# Tested on: pentosidine formation
# Test: Inhibitory effect on pentosidine formation in plasma of hemodialysis patients
# Format: biochemical, human
# Details: final concentrations 0.8, 2.0, and 5.0 mM, 1 week at 37° C., FIG. 13
# Experimental: Plasma was collected from hemodialysis patients prior to dialysis with the patients' consent, and the plasma was filtered and sterilized. To the plasma (450 μL) was added solutions of TM-2002 in dimethylsulfoxide (50 μL) (final concentrations: 0.8, 2.0, and 5.0 mM), and the mixtures were incubated for 1 week at 37° C. The levels of the pentosidine formation were measured.
# Pentosidine was measured as follows. To each sample (50 μL) after incubation was added an equal volume of 10% trichloroacetic acid, and the mixture was subsequently centrifuged at 5,000 g for 5 minutes. After the supernatant was removed, the pellet was washed with 5% trichloroacetic acid (300 μL). […] The concentration of the released pentosidine was measured by reverse-phase HPLC using a fluorescence detector (RF-10A, Shimadzu Corporation) (Miyata, T. et al.; Proc. Natl. Acad. Sci. USA, Vol. 93, p. 2353-2358, 1996). The effluent was monitored at the excitation/emission wavelength of 335/385 nm. […]
# The inhibitory effect was evaluated by comparison with a positive control (pyridoxamine (Sigma)), which was reacted in the same manner as Compound TM-2002. […] The results (the quantities of pentosidine: nmol/ml) are shown in FIG. 13, wherein the “control” hereinbelow means a negative control using only the solvent.
compound,measurement,value
"Cc1ncc2c(c1O)C(c1c(C)nn(-c3ccccc3)c1O)OC2 (stereo not shown) [No. 68, 1-(5-hydroxy-3-methyl-1-phenyl-1H-pyrazol-4-yl)-6-methyl-1,3-dihydro-furo[3,4-c]pyridin-7-ol]",inhibition of pentosidine formation compared to pyridoxamine (positive control),significantly inhibits the pentosidine formation as compared to pyridoxamine
